Data on two molecules can be found in ChEMBL document CHEMBL4364295, “Discovery of a First-in-Class Receptor Interacting Protein 2 (RIP2) Kinase Specific Clinical Candidate, 2-((4-(Benzo[d]thiazol-5-ylamino)-6-(tert-butylsulfonyl)quinazolin-7-yl)oxy)ethyl Dihydrogen Phosphate, for the Treatment of Inflammatory Diseases” (J Med Chem, 2019).

The source made the active and inactive calls. No cut-off for these calls is given here.

A short description of series [1]: Dose normalized AUC in Sprague-Dawley rat at 60 mg/kg, po using crystalline sample during 7 day dose ranging study by LC/MS/MS analysis. It is filed as ADME, organism-based. The following applies: in vivo, 168 h.
In the next series the test system is Cricetinae. Briefly: Displacement of [125I]2-iodomelatonin from hamster MT3 receptor at 10 uM measured after 60 mins by scintillation counting method. A general note: Loss of bound radioactivity is the signal in a displacement assay; it reports binding, not function.
The nature of series [2]: Cmax in Sprague-Dawley rat at 20 mg/kg, po using crystalline sample during 7 day dose ranging study by LC/MS/MS analysis. It is filed as ADME, organism-based. Set-up: dose 20 mg/kg, route oral. The settings on record: in vivo.
Series [3] deals with Vascular endothelial growth factor receptor 3 (Homo sapiens) (UniProt P35916). Briefly: Inhibition of human VEGFR3 at 1 uM using poly[Glu:Tyr] (4:1) as substrate in presence of [gamma-33P]ATP relative to control.
Series [4] can be described thus: AUC in Beagle dog at 2 mg/kg, po by LC/MS/MS analysis. It is filed as ADME, organism-based, Canis lupus familiaris. The settings on record: in vivo.
Series [5] is described as follows: Unbound fraction in human blood. The series is classed as ADME, tissue-based.
Series [6] can be described thus: Cmax in Sprague-Dawley rat at 60 mg/kg, po using crystalline sample during 7 day dose ranging study by LC/MS/MS analysis. The series is classed as ADME, organism-based. Set-up: dose 60 mg/kg, route oral. The settings on record: in vivo.
Series [7] is described as follows: Clearance in minipig hepatocytes. It is filed as ADME, cell-based, Sus scrofa, Hepatocyte. The following applies: pig.
Series [8] has as its target T1, Ephrin type-A receptor 6 (Homo sapiens) (UniProt Q9UF33).
T1 sequence (whole entry): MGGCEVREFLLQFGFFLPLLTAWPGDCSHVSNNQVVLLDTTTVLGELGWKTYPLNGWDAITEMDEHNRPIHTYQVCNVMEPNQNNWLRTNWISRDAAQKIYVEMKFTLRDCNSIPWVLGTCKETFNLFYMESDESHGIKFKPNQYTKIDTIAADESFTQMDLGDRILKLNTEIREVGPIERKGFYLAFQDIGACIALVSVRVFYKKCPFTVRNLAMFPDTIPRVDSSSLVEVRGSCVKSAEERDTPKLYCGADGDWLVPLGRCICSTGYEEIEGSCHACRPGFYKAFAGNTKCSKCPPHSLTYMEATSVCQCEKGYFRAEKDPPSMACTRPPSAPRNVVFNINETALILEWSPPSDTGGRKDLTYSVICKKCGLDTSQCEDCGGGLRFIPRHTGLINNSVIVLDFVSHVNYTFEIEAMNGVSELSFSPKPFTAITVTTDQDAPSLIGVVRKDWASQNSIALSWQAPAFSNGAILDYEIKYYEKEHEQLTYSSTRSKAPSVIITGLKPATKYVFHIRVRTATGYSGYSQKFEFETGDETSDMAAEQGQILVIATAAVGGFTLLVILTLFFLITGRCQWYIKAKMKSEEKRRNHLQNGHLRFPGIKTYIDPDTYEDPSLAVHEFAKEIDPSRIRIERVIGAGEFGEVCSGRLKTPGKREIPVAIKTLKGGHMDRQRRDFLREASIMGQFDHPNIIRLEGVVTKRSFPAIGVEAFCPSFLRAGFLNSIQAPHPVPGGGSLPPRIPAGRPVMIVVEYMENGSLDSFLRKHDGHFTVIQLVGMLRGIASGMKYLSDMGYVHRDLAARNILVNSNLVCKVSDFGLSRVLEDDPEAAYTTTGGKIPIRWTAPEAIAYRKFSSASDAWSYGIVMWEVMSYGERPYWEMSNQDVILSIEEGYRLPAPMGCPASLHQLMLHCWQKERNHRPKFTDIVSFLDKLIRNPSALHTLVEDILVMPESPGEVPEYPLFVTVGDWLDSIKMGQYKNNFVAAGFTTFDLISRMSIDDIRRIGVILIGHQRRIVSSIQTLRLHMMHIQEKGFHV
The series is described as follows: Inhibition of human EPHA6 at 1 uM using poly[Glu:Tyr] (4:1) as substrate in presence of [gamma-33P]ATP relative to control.

A short description of series [9]: Clearance in Beagle dog at 2 mg/kg, po or 1.1 mg/kg, iv by LC/MS/MS analysis. The series is classed as ADME, organism-based, Canis lupus familiaris. The settings on record: in vivo.
A short description of series [10]: Prodrug conversion in minipig hepatocytes assessed as 2-(4-(benzo[d]thiazol-5-ylamino)-6-(tert-butylsulfonyl)quinazolin-7-yloxy)acetic acid formation at 20 uM measured after 4 hrs. The series is classed as ADME, cell-based, Sus scrofa, Hepatocyte. The settings on record: pig.
Series [11] in a line: Prodrug conversion in human hepatocytes assessed as 2-((4-(Benzo[d]thiazol-5-ylamino)-6-(tert-butylsulfonyl)quinazolin-7-yl)oxy)ethanol formation at 20 uM measured after 4 hrs. The series is classed as ADME, cell-based, Hepatocyte.
The nature of series [12]: Toxicity in Sprague-Dawley rat during 6 week study. The settings on record: in vivo, 1008 h.
Series [13] in a line: Prodrug conversion in minipig hepatocytes assessed as 2-(4-(benzo[d]thiazol-5-ylamino)-6-(tert-butylsulfonyl)-1,2,3,4-tetrahydroquinazolin-7-yloxy)ethanol formation at 20 uM measured after 4 hrs. It is filed as ADME, cell-based, Sus scrofa, Hepatocyte. The following applies: pig.
The nature of series [14]: Prodrug conversion in mouse blood assessed as 2-((4-(Benzo[d]thiazol-5-ylamino)-6-(tert-butylsulfonyl)quinazolin-7-yl)oxy)ethanol formation at 0.25 to 145 mg/kg, po administered twice daily via gavage for 8 days. It is filed as ADME, organism-based. The following applies: in vivo, 192 h.
A short description of series [15]: Prodrug conversion in Sprague-Dawley rat stomach assessed as 2-((4-(Benzo[d]thiazol-5-ylamino)-6-(tert-butylsulfonyl)quinazolin-7-yl)oxy)ethanol formation at 2 mg/kg, po or 0.5 mg/kg, iv measured at 15 to 120 mins post dose. The series is classed as ADME, organism-based. The following applies: in vivo.
Series [16] is described as follows: AUC in Beagle dog assessed as 2-((4-(Benzo[d]thiazol-5-ylamino)-6-(tert-butylsulfonyl)quinazolin-7-yl)oxy)ethanol level at 2 mg/kg, po by LC/MS/MS analysis. The series is classed as ADME, organism-based, Canis lupus familiaris. The settings on record: in vivo.
Series [17] is described as follows: Volume of distribution at steady state in Gottingen minipig assessed as 2-((4-(Benzo[d]thiazol-5-ylamino)-6-(tert-butylsulfonyl)quinazolin-7-yl)oxy)ethanol level at 2 mg/kg, po or 1 mg/kg, iv by LC/MS/MS analysis. It is filed as ADME, organism-based, Sus scrofa. The following applies: pig, in vivo.
Series [18] can be described thus: Ratio of brain to blood concentration in Han Wistar rat assessed as 2-((4-(Benzo[d]thiazol-5-ylamino)-6-(tert-butylsulfonyl)quinazolin-7-yl)oxy)ethanol level at 2 mg/kg, iv administered as infusion for 4 hrs. The series is classed as ADME, organism-based.
The nature of series [19]: Half life in human intestinal S9 fraction. The series is classed as ADME, subcellular, Intestine.
Series [20] can be described thus: Prodrug conversion in rat hepatocytes assessed as 2-(4-(benzo[d]thiazol-5-ylamino)-6-(tert-butylsulfonyl)-1,2,3,4-tetrahydroquinazolin-7-yloxy)ethanol formation at 20 uM measured after 4 hrs. The series is classed as ADME, cell-based, Hepatocyte.
A short description of series [21]: Prodrug conversion in rat hepatocytes assessed as 2-(4-(benzo[d]thiazol-5-ylamino)-7-(2-hydroxyethoxy)quinazolin-6-ylsulfonyl)-2-methylpropan-1-ol formation at 20 uM measured after 4 hrs. It is filed as ADME, cell-based, Hepatocyte.

Sequence of Vascular endothelial growth factor receptor 3 (Homo sapiens) (P35916 whole entry): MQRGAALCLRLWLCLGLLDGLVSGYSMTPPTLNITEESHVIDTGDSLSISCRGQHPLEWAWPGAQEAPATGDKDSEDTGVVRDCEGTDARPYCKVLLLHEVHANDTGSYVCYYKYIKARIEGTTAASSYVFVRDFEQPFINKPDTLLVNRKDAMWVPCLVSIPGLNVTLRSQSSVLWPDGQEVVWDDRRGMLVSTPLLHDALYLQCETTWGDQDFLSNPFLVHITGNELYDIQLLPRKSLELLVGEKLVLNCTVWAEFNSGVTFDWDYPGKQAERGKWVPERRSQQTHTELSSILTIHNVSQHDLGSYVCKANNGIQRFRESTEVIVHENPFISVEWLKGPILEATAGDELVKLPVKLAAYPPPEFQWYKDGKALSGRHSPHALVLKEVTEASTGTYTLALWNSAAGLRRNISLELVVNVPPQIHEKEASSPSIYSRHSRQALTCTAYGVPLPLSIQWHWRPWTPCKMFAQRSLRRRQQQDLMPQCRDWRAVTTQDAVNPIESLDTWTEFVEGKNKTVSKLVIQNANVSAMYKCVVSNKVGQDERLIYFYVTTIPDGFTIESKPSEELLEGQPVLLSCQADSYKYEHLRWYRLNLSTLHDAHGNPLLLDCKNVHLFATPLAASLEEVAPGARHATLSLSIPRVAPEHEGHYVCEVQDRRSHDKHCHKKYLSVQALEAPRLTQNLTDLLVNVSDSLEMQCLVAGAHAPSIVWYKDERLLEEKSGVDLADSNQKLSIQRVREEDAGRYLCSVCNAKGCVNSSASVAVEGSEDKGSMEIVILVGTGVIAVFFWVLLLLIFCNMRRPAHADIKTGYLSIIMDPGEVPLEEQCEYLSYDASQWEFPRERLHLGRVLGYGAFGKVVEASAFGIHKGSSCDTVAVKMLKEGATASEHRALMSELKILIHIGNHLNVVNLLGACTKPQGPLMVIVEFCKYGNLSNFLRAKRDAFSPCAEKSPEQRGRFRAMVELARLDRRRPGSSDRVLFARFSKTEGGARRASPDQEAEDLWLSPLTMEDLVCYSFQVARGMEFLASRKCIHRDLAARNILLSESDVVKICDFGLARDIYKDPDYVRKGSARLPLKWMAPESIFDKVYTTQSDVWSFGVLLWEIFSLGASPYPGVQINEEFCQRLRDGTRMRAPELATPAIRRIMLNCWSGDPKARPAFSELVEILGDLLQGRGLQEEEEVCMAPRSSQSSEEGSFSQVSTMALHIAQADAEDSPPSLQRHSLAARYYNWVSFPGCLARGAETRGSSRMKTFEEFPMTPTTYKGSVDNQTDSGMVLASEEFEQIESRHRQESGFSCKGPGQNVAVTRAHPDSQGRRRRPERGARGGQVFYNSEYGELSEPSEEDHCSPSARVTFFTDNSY

`CC(C)(C)S(=O)(=O)c1cc2c(Nc3ccc4scnc4c3)ncnc2cc1OCCO` displayed an AUC/dose in [1] of 0.39 kg·h/L. The inhibition (as a rule, the relative decrease from the control value, in per cent) in the series on Cricetinae was “Active”. Besides, the maximum concentration (Cmax) (as a rule, the highest concentration seen after dosing) is 900 ng/mL in series [2] and 2100 ng/mL in series [6]. Besides, the values for the inhibition in series [3] and in series [8] were above 90% and 70 to 90%, respectively. Further, the AUC (usually the area under the concentration-time curve, a measure of exposure) in series [4] stood at 1800 ng·h/mL. In addition, the fraction unbound (as a rule, the share of the substance not bound to proteins or other matrix) in series [5] came to 0.069. In series [7], the CLH stood at 0.55 mL/min/g. This molecule also gave a clearance in [9] of 9.9 mL/min/kg.
On to `CC(C)(C)S(=O)(=O)c1cc2c(Nc3ccc4scnc4c3)ncnc2cc1OCCOP(=O)(O)O.[CaH2]`, for which the Drug metabolism entry in [10], in series [11], in [13], in series [14], in series [15] and in series [20] was “Metabolite_Detected” in each case. The Drug metabolism result in series [21] is “Metabolite_Detected”. Besides, the Activity entry in [12] is recorded as “Non-Toxic”. Further, in [16], the AUC turned out to be 4400 ng·h/mL. Further, the Vdss in [17] stood at 2.1 L/kg. Moreover, the Ratio in [18] is 0.065. For the same molecule, the half-life (in general, the time in which the quantity being followed falls by half) in series [19] was found to be 18.3 min.
